Reference: paper PMC8286840, “Identifying SARS-CoV-2 antiviral compounds by screening for small molecule inhibitors of Nsp3 papain-like protease” (Biochemical Journal, 2021)
Where a name gives a salt, the structure may show the parent alone. Read-outs that look alike come from different tables or passages of the source.

Experiments:
[1] = biological target: T1, SARS-CoV-2 PLpro (nsp3 1564–1878) (Severe acute respiratory syndrome coronavirus 2, UniProt P0DTD1); assay: biochemical; parameters: FRET-quenched peptide (Pro3) cleavage by PLpro, 10 min pre-incubation, slope over 20 min, normalised to no-compound control; details: low concentration screen, read-out: % of control remaining
[2] = biological target: T1, SARS-CoV-2 PLpro (nsp3 1564–1878); assay: biochemical; parameters: FRET-quenched peptide (Pro3) cleavage by PLpro, 10 min pre-incubation, slope over 20 min, normalised to no-compound control; details: high concentration screen, read-out: % of control remaining

Compound CN(C)CCC(c1ccc(Br)cc1)c1ccccn1 (centres unmarked) [Brompheniramine (maleate)] has a remaining activity at 1.25 µM ([1]; Well no.=7377) of 102% and a remaining activity at 3.75 µM ([2]; Well no.=7377) of 105%.
With Clc1ccc2nsnc2c1NC1=NCCN1 [Tizanidine (hydrochloride)] the remaining activity at 1.25 µM ([1]; Well no.=6612) was 105% and the remaining activity at 3.75 µM ([2]; Well no.=6612) was 96%.
CC1CNC(=O)NC1=O (centres unmarked) [Dihydrothymine] gave a remaining activity at 1.25 µM ([1]; Well no.=8392) of 100% and a remaining activity at 3.75 µM ([2]; Well no.=8392) of 92.8%.
Compound O=c1[nH]cnc2nc[nH]c12 [Hypoxanthine] has a remaining activity at 1.25 µM ([1]; Well no.=5246) of 96.5%, a remaining activity at 1.25 µM ([1]; Well no.=7269) of 91.9% and a remaining activity at 3.75 µM ([2]; Well no.=5246) of 96.5%. For the same compound, the remaining activity at 3.75 µM ([2]; Well no.=7269) was 89.6%.
NS(=O)(=O)c1cc2c(cc1Cl)N=C(CSCc1ccccc1)NS2(=O)=O [Benzthiazide] showed a remaining activity at 1.25 µM ([1]; Well no.=8586) of 98.4% and a remaining activity at 3.75 µM ([2]; Well no.=8586) of 93.6%.
COc1ccc([C@@H]2CC(=O)c3c(O)cc(O[C@@H]4O[C@H](CO)[C@@H](O)[C@H](O)[C@H]4O[C@@H]4O[C@@H](C)[C@H](O)[C@@H](O)[C@H]4O)cc3O2)cc1O [Neohesperidin] showed a remaining activity at 1.25 µM ([1]; Well no.=3444) of 98.8% and a remaining activity at 3.75 µM ([2]; Well no.=3444) of 98.5%.
CN[C@@H](C)C(=O)N[C@H](C(=O)N1CCC[C@H]1c1nc(C(=O)c2ccc(F)cc2)cs1)C1CCCCC1 [LCL161] was tested, and the remaining activity at 1.25 µM ([1]; Well no.=6594) was 91.2% and the remaining activity at 3.75 µM ([2]; Well no.=6594) was 94.5%.
COC(=O)[C@H]1[C@H]2C[C@H]3c4[nH]c5ccccc5c4CCN3C[C@H]2CC[C@@H]1O [Rauwolscine] was tested, and the remaining activity at 1.25 µM ([1]; Well no.=3128) was 99% and the remaining activity at 3.75 µM ([2]; Well no.=3128) was 99.4%.
Work on NNc1nncc2ccccc12 [Hydralazine hydrochloride] yielded a remaining activity at 1.25 µM ([1]; Well no.=560) of 95.6% and a remaining activity at 3.75 µM ([2]; Well no.=560) of 95.5%.
Cc1cc(-c2ccc(N=Nc3c(S(=O)(=O)O)cc4cc(S(=O)(=O)O)cc(N)c4c3O)c(C)c2)ccc1N=Nc1c(S(=O)(=O)O)cc2cc(S(=O)(=O)O)cc(N)c2c1O [Diphenyl Blue] gave a remaining activity at 1.25 µM ([1]; Well no.=7598) of 89.8% and a remaining activity at 3.75 µM ([2]; Well no.=7598) of 89.2%.
Work on Cc1cc(C(C)(C)C)c(O)c(C)c1CC1=NCCN1 [Oxymetazoline (hydrochloride)] yielded a remaining activity at 1.25 µM ([1]; Well no.=7327) of 102% and a remaining activity at 3.75 µM ([2]; Well no.=7327) of 99.6%.
Cc1cc2ncc(-c3ccccc3)nc2cc1C [AG 1295] gave a remaining activity at 1.25 µM ([1]; Well no.=2611) of 97.5% and a remaining activity at 3.75 µM ([2]; Well no.=2611) of 97.7%.
Work on CCCCC(C)(O)C/C=C/[C@H]1[C@H](O)CC(=O)[C@@H]1CCCCCCC(=O)OC (mixture of isomers) [Misoprostol] yielded a remaining activity at 1.25 µM ([1]; Well no.=2194) of 99.5%, a remaining activity at 1.25 µM ([1]; Well no.=7473) of 104% and a remaining activity at 3.75 µM ([2]; Well no.=2194) of 98%. The remaining activity at 3.75 µM ([2]; Well no.=7473) was 103%.
For NCC(CP(=O)(O)O)c1ccc(Cl)cc1 (centres unmarked) [Phaclofen], the remaining activity at 1.25 µM ([1]; Well no.=1167) was 103% and the remaining activity at 3.75 µM ([2]; Well no.=1167) was 104%.
Work on CC[C@@H](CO)NC(=O)[C@@H]1C=C2c3cccc4c3c(cn4C)C[C@H]2N(C)C1 [Methysergide maleate] yielded a remaining activity at 1.25 µM ([1]; Well no.=1087) of 94.2%, a remaining activity at 1.25 µM ([1]; Well no.=2284) of 94.8% and a remaining activity at 3.75 µM ([2]; Well no.=2284) of 90.3%.
CCNC(=O)c1noc(-c2cc(C(C)C)c(O)cc2O)c1-c1ccc(CN2CCOCC2)cc1 [AUY922 (NVP-AUY922)] gave a remaining activity at 1.25 µM ([1]; Well no.=5005) of 103% and a remaining activity at 3.75 µM ([2]; Well no.=5005) of 102%.
Work on CS(=O)(=O)CCNCc1nc(-c2ccc3ncnc(Nc4ccc(OCc5cccc(F)c5)c(Cl)c4)c3c2)cs1 [GW 583340 dihydrochloride - N-[3-Chloro-4-[(3-fluorophenyl)methoxy]phenyl]-6-[2-[[[2-(methylsulfonyl)ethyl]amino]methyl]-4-thiazolyl]-4-quinazolinamine dihydrochloride] yielded a remaining activity at 1.25 µM ([1]; Well no.=2490) of 94.4% and a remaining activity at 3.75 µM ([2]; Well no.=2490) of 94.9%.
For Nc1nc(NCCc2ccc(O)cc2)nc2nc(-c3ccco3)nn12 [ZM241385], the remaining activity at 1.25 µM ([1]; Well no.=7042) was 106%, the remaining activity at 1.25 µM ([1]; Well no.=8411) was 90.6% and the remaining activity at 3.75 µM ([2]; Well no.=7042) was 104%. The remaining activity at 3.75 µM ([2]; Well no.=8411) was 88.3%.
Cc1ccc(O)c(O)c1 [4-Methylcatechol] was tested, and the remaining activity at 1.25 µM ([1]; Well no.=6739) was 106% and the remaining activity at 3.75 µM ([2]; Well no.=6739) was 108%.
CCCCCCCC/C=C\CCCCCCC(O)C(=O)O (centres unmarked) [2OHOA] showed a remaining activity at 1.25 µM ([1]; Well no.=5534) of 97.8% and a remaining activity at 3.75 µM ([2]; Well no.=5534) of 96.7%.
Work on Cc1cccn2c(=O)c(-c3nnn[nH]3)cnc12 [Pemirolast (potassium)] yielded a remaining activity at 1.25 µM ([1]; Well no.=7611) of 98.6% and a remaining activity at 3.75 µM ([2]; Well no.=7611) of 96.7%.
Work on Cc1c(Cc2ccc3ccccc3n2)c2cc(F)ccc2n1CC(=O)O [OC000459] yielded a remaining activity at 1.25 µM ([1]; Well no.=7765) of 108% and a remaining activity at 3.75 µM ([2]; Well no.=7765) of 105%.
CN1CC[C@H](c2c(O)cc(O)c3c(=O)cc(-c4ccccc4Cl)oc23)[C@H](O)C1 [Alvocidib] gave a remaining activity at 1.25 µM ([1]; Well no.=2695) of 98.7% and a remaining activity at 3.75 µM ([2]; Well no.=2695) of 104%.
For N[C@]1(C(=O)O)CC[C@H](C(=O)O)C1 [trans-ACPD], the remaining activity at 1.25 µM ([1]; Well no.=7040) was 98.2% and the remaining activity at 3.75 µM ([2]; Well no.=7040) was 96.7%.
Compound CCCNCC(O)COc1ccccc1C(=O)CCc1ccccc1 (centres unmarked) [Propafenone] has a remaining activity at 1.25 µM ([1]; Well no.=1641) of 109% and a remaining activity at 3.75 µM ([2]; Well no.=1641) of 110%.
With COc1ccc2c(c1)[C@]13CCCC[C@@H]1[C@H](C2)N(C)CC3 [Dextromethorphan hydrobromide monohydrate] the remaining activity at 1.25 µM ([1]; Well no.=447) was 100% and the remaining activity at 3.75 µM ([2]; Well no.=447) was 104%.
C[C@H](CCC(=O)NCCS(=O)(=O)O)[C@H]1CC[C@H]2[C@@H]3[C@H](O)C[C@@H]4C[C@H](O)CC[C@]4(C)[C@H]3CC[C@]12C [Taurochenodeoxycholic acid] was tested, and the remaining activity at 1.25 µM ([1]; Well no.=6294) was 101%, the remaining activity at 3.75 µM ([2]; Well no.=6294) was 101% and the remaining activity at 3.75 µM ([2]; Well no.=6493) was 103%.
Compound OC[C@H]1O[C@@H](Oc2cc(O)cc(/C=C/c3ccc(O)cc3)c2)[C@H](O)[C@@H](O)[C@@H]1O [Polydatin] has a remaining activity at 1.25 µM ([1]; Well no.=6304) of 100%, a remaining activity at 1.25 µM ([1]; Well no.=8196) of 102% and a remaining activity at 3.75 µM ([2]; Well no.=6304) of 98.5%. It also gave a remaining activity at 3.75 µM ([2]; Well no.=8196) of 97.4%.
In the case of O=C(/C=C/c1ccc(Cl)cc1)N1CCC2(CC1)CN(Cc1ccc(Cl)c(Cl)c1)C(=O)O2 [GSK682753A], the remaining activity at 1.25 µM ([1]; Well no.=7054) is reported as 107% and the remaining activity at 3.75 µM ([2]; Well no.=7054) is reported as 101%.
Compound Cc1nc(N=Nc2ccc(S(=O)(=O)O)cc2S(=O)(=O)O)c(COP(=O)(O)O)c(C=O)c1O [PPADS] has a remaining activity at 1.25 µM ([1]; Well no.=1217) of 102% and a remaining activity at 3.75 µM ([2]; Well no.=1217) of 101%.
With CN[C@@H](C)C(=O)N[C@H]1CCCC[C@H]2CC[C@@H](C(=O)N[C@@H](c3ccccc3)c3cn(CCCCc4ccc(CCCCn5cc([C@@H](NC(=O)[C@@H]6CC[C@@H]7CCCC[C@H](NC(=O)[C@H](C)NC)C(=O)N76)c6ccccc6)nn5)cc4)nn3)N2C1=O [SM-164 Hydrochloride] the remaining activity at 1.25 µM ([1]; Well no.=7030) was 105%, the remaining activity at 1.25 µM ([1]; Well no.=8556) was 104% and the remaining activity at 3.75 µM ([2]; Well no.=7030) was 102%. The remaining activity at 3.75 µM ([2]; Well no.=8556) was 99.5%.
